Reference: patent US20260183302A1, “PDK1 REGULATORY COMPOUND AND COMPOSITION CONTAINING THE SAME” (PROVIBIO CO., LTD., priority 2024, published 2026)

What was measured:
Assay type in all cases: cell-based
[1] = system: human lung fibroblasts MRC-5; experiment: TGF-β induced Collagen I expression in MRC-5 cells (Western blot); details: MRC-5, TGF-β (5 ng/ml), 0.5 μM and 1 μM, 24 hours
Protocol: To confirm that the compound of the present invention directly acts on fibrosis-related mechanisms, in vitro experiments were performed using human lung fibroblasts MRC-5 cell lines (Korea Cell Bank).
First, MRC-5 cells were seeded at 5×10^3 cells per well in a 6-well plate and stabilized for 24 hours.
Subsequently, experimental groups were established, including a control group, a group treated with TGF-β (5 ng/ml) alone, and groups treated with TGF-β and the compound GO88 from the present invention at concentrations of 0.5 μM and 1 μM, respectively.
After treating each group with the drugs for 24 hours, the cell medium was removed, and the cells were washed twice with cold PBS. Then, RIPA lysis buffer containing phosphatase inhibitor and protease inhibitor was added to each group to extract proteins.
The extracted proteins were incubated at 4° C. for 30 minutes, then centrifuged at 13,000 rpm for 15 minutes, and the supernatant was collected. The total protein concentration was measured using the BCA protein quantification method.
Subsequently, the proteins were separated by SDS-PAGE, transferred to a PVDF membrane, and Western blot analysis was performed.
The expression levels of Collagen I, a marker related to pulmonary fibrosis, were confirmed, with GAPDH used as an internal control.

[2] = system: Human Bladder cancer cell, T24; experiment: Relative cell viability, T24 (CCK-8); details: 48 hours
Protocol: (§1) Human-derived breast cancer cell line MCF-7, human-derived lung cancer cell line A549, human-derived colorectal cancer cell line HCT-116, human pancreatic cancer cell line AsPC-1, glioblastoma cell line A172, and melanoma cell line Malme-3M were obtained from the Korean Cell Bank. gastric cancer cell line SNU-719, and bladder cancer cell line T24 were cultured in RPMI-1640 medium containing 10% FBS.
(§2) Following stabilization, the cells were harvested using Trypsin-EDTA treatment, centrifuged at 1,200 rpm for 3 minutes, the supernatant was removed, and the cells were resuspended in the same medium. They were then seeded into a 96-well plate (Costar 96-well cell culture plate, Corning) at 100 μL per well, and the conditions were adjusted as indicated in Table 5.
The cells were cultured in a 5% CO2 incubator at 37° C. for 24 hours, and after stabilization of the cells, each plate was washed with 200 μL of PBS per well and treated with 50 μL of culture medium per well. […]
(§3) After that, 10 μL of CCK-8 was added to each well, and the plate was incubated again at 37° C. in a 5% CO2 incubator for 2 hours.
(§4) In other words, when the survival rate of untreated cells (DMSO) is set at 100%, the relative cell survival rate in each group treated with the drug at different concentrations is indicated.

[3] = system: Human B Lymphocyte cell line, SU-DHL-8; experiment: Relative cell viability, SU-DHL-8 (CCK-8); details: 48 hours, untreated (DMSO) = 100%
In short: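 Cells grown in RPMI-1640 with 10% FBS, treated with compound at several concentrations, then given CCK-8 for 4 h at 37° C. Viability expressed as percent of DMSO-treated cells.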

[4] = system: Human Colorectal Carcinoma cell line, HCT-116; experiment: Relative cell viability, HCT-116 (CCK-8); details: 48 hours
Protocol: as §1, §2
The cells were cultured in a 5% CO2 incubator at 37° C. for 24 hours, and after stabilization of the cells, each plate was washed with 200 μL of PBS per well and treated with 50 μL of culture medium per well.
as §3, §4

Molecule | protein expression of Collagen I [1] | Relative cell viability (%) ([2]; T24, 1 μM) | Relative cell viability (%) ([2]; T24, 10 μM) | Relative cell viability (%) ([2]; T24, 30 μM) | Relative cell viability (%) ([2]; T24, 50 μM) | Relative cell viability (%) ([3]; SU-DHL-8, 1 μM) | Relative cell viability (%) ([3]; SU-DHL-8, 10 μM) | Relative cell viability (%) ([3]; SU-DHL-8, 30 μM) | Relative cell viability (%) ([3]; SU-DHL-8, 50 μM) | Relative cell viability (%) ([4]; HCT-116, 1 μM) | Relative cell viability (%) ([4]; HCT-116, 10 μM) | Relative cell viability (%) ([4]; HCT-116, 30 μM) | Relative cell viability (%) ([4]; HCT-116, 50 μM)
Nc1ncccc1C(=O)NCCCCCCCCCCCCN1CCNCC1 [Compound 14, 2-Amino-N-(12-(piperazin-1-yl)dodecyl)nicotinamide] | inhibited in a concentration-dependent manner |  |  |  |  |  |  |  |  |  |  |  | 
12-[4-(2,2-dimethylmorpholin-4-yl)]dodecyl-N-(6-aminopurine-2-yl) carboxamide [Compound 11] |  | 28.15 | 31.17 | 30.42 | 29.34 | 7.63 | 6.09 | 4.82 | 3.29 | 21.36 | 24.91 | 24.78 | 25.26
